In paper PMC3039689, “Identification of Small Molecule Lead Compounds for Visceral Leishmaniasis Using a Novel Ex Vivo Splenic Explant Model System” (PLoS Neglected Tropical Diseases, 2011):
Structures can show the parent of a compound that is named as a salt. Where two headings read alike, the source gives them in different places.

What was measured:
[1] = Cell toxicity (CC50) in the HepG2 cell line, CellTiter-Glo; assay type: cell-based, human; conditions: human
Protocol: After 24 hours of culture at 37°C the number of viable cells was determined by quantification of the ATP present in the cell using the CellTiter-Glo luminescent Cell Viability Assay (Promega).

[2] = system: luciferase-transfected Leishmania donovani; experiment: Anti-leishmanial efficacy (EC50) in the ex vivo splenic explant model; assay type: cell-based
Protocol: To establish the plate assay for drug screening, the spleens from 2 infected hamsters were aseptically removed and placed in a Petri dish containing 5 mL of Collagenase D (Roche) at 2 mg/mL of buffer (10 mM Hepes pH 7.4, 150 mM NaCl, 5 mM KCl, 1 mM MgCl2, 1.8 mM CaCl2). The spleen was infiltrated by injection with approximately 2 mL of Collagenase solution, the tissue was cut into small pieces using sharp scissors, and incubated for 20 minutes at 37°C. The cell suspension and remaining tissue fragments were gently passed through a 100 µm cell strainer (B–D) to obtain a single cell suspension, which was washed twice by centrifugation (500 g for 7 min at 4°C) and re-suspended in culture medium composed of DMEM (Gibco), 5% FBS, 1 mM Sodium pyruvate (Gibco), 1X MEM amino acids solution (Sigma), 0.02% v/v/EDTA, 10 mM HEPES buffer (Cellgro) and 100 IU/mL Penicillin/100 […] Streptomycin solution (Cellgro).
The anti-leishmanial efficacy of the compounds was determined using the splenic explant model in a 96-well plate format. […] Because variation in the parasite burden between different explant cultures was expected, the concentration of cells used in each experiment was adjusted to give approximately 100 counts by luminometry (equivalent to ∼240,000 parasites). The number of surviving parasites was determined by luminometry as described above.

[3] = HepG2 cells, HepG2 cell line, 24 h, ATP luminescence, compound from screened library, read-out: HepG2 CC50 Mean
[4] = Leishmania donovani, ex vivo splenic explant, 48 h, luminometry, at least two experiments, compound from screened library, read-out: Ex vivo model EC50 Mean
[5] = HepG2 cell line, 24 h, ATP luminescence, compound from screened library, read-out: HepG2 CC50 Mean
[6] = Leishmania donovani, 48 h, ex vivo splenic explant, 48 h, luminometry, at least two experiments, compound from screened library, read-out: Ex vivo model EC50 Mean
[7] = Leishmania donovani, 50% reduction in parasite counts in the ex vivo model, read-out: EC50 Mean (Table S2)
[8] = 50% reduction in parasite counts in the ex vivo model, read-out: EC50 Mean (Table S2)

Compound	CC50 at 24 h [1, 3] [µM]	EC50 [2, 4] [µM]	EC50 [2, 6] [µM]	further results
[H]/N=C(\N/C(=N/[H])NCCCCCCNC(=N)NC(=N)Nc1ccc(Cl)cc1)Nc1ccc(Cl)cc1 [Chlorhexidine]	60.5	10.3	–	–
CC[C@@]1(O)C[C@H](O[C@H]2C[C@H](N(C)C)[C@H](O)[C@H](C)O2)c2c(cc3c(c2O)C(=O)c2c(O)cccc2C3=O)[C@H]1C(=O)OC [Aklavine Hydrochloride]	–	0.7	–	CC50 [1, 5]: 14 µM
CNCCC=C1c2ccccc2CCc2ccccc21 [Nortriptyline Hydrochloride]	–	–	7.8	CC50 [1]: 52.6 µM
C[C@]12C(=O)C=CCC1=CC[C@@H]1[C@@H]2CC[C@@]2(O)C(=O)O[C@@]3(C)[C@H]4C[C@]5(C)[C@@H](CO[C@@]16O[C@]23[C@H]5C6=O)C(=O)O4 [Physalin B]	–	8.6	–	CC50 at 24 h [1, 5]: 50.7 µM; EC50 [2, 7]: 8.59 µM
C=C1C(=O)O[C@H]2C[C@@H]1C(OC(C)=O)C/C(C)=C/CC/C(C)=C/CC[C@@]2(C)O (stereo partly drawn) [Crassin Acetate]	41.1	–	7.7	–
Oc1c(I)cc(Cl)c2cccnc12 [Clioquinol]	60	11.3	–	–
COc1cc(NCCC2CCCCN2)c2ncccc2c1 (stereo not drawn) [6-methoxy-N-(2-(2-piperidinyl)ethyl)-8-quinolinamine]	–	5.1	–	CC50 at 24 h [1]: 108 µM
Cc1cc(O)ccc1Cl [Chlorocresol]	138	8	–	EC50 [2, 7]: 8.02 µM
COc1ccc(-c2cc(=O)c3cc(OC)ccc3o2)cc1 [6,4'-dimethoxyflavone]	95	–	17.9	–
CCN(CC)CCN1C(=O)c2cccc3cc(N)cc(c23)C1=O [1H-Benz[de]isoquinoline-1,3(2H)-dione, 5-amino-2-[2-(diethylamino)ethyl]-]	–	8.4	–	CC50 [1, 5]: 69.3 µM
CSc1ccc2c(c1)c(CCN)c(C)n2Cc1ccccc1Cl [2-[1-[(2-chlorophenyl)methyl]-2-methyl-5-methylsulfanyl-indol-3-yl]ethanamine]	–	9.4	–	CC50 [1, 5]: 71.8 µM
CN(C)CCCN1c2ccccc2Sc2ccc(Cl)cc21 [Chlorpromazine]	–	–	–	CC50 at 24 h [1]: 96.1 µM; EC50 [2, 7]: 15.1 µM
OC1(c2ccccc2)c2ccccc2NC2=NCCN21 (stereo not drawn) [5-phenyl-3,10-dihydro-2H-imidazo[2,1-b]quinazolin-5-ol]	107	–	12	–
CN(C)CCCN1c2ccc(O)cc2Sc2ccc(Cl)cc21 [7-Hydroxychlorpromazine]	–	11	–	CC50 [1, 5]: 60.1 µM
Clc1ccc2c(NC3CCC(N4CCCCC4)CC3)ccnc2c1 (stereo not drawn) [7-chloro-N-(4-(1-piperidinyl)cyclohexyl)-4-quinolinamine]	67.4	–	6.3	–
C[C@@H]1CC[C@@]2(OC1)O[C@H]1[C@@H](O)[C@H]3[C@@H]4CC[C@H]5C[C@@H](O[C@@H]6O[C@H](CO)[C@H](O[C@@H]7O[C@H](CO)[C@@H](O)[C@H](O[C@@H]8OC[C@@H](O)[C@H](O)[C@H]8O)[C@H]7O[C@@H]7O[C@H](CO)[C@H](O)[C@H](O[C@@H]8O[C@H](CO)[C@@H](O)[C@H](O)[C@H]8O)[C@H]7O)[C@H](O)[C@H]6O)[C@H](O)C[C@]5(C)[C@H]4CC[C@]3(C)[C@H]1[C@@H]2C [Digitonin]	–	–	8.2	CC50 [1, 5]: 42.4 µM
N=C1C=CC(=C(c2ccc(N)cc2)c2ccc(N)cc2)C=C1 [Pararosaniline Pamoate]	–	2.7	–	CC50 at 24 h [1]: 37.1 µM
CCCCCCCCCCC[C@@H](C[C@@H]1OC(=O)[C@H]1CCCCCC)OC(=O)[C@H](CC(C)C)NC=O [Orlistat]	–	–	24.9	CC50 at 24 h [1]: 161 µM
C[C@]12CC[C@H]3[C@@H](CC=C4C[C@@H](O)CC[C@@]43C)[C@@H]1CC[C@@H]2N(CCO)CCO [17beta-[Bis(2-hydroxyethyl)amino]androst-5-en-3beta-ol]	88.5	–	7.5	–

Compound	CC50 at 24 h [1, 3] [µM]	EC50 [2, 4] [µM]	EC50 [2, 6] [µM]	further results
Oc1ccc(Cl)c2cccnc12 [Cloxyquin]	94.8	–	–	–
CO[C@@H]1C[C@@H](C[C@H]2CC[C@H](C)[C@H]([C@@H](C)C(=O)O)O2)O[C@]2(O[C@](C)([C@H]3CC[C@@](C)([C@@H]4O[C@@H]([C@H]5O[C@@](O)(CO)[C@H](C)C[C@@H]5C)C[C@@H]4C)O3)C[C@H]2C)[C@@H]1C [Nigericin, monosodium salt]	–	–	3.1	CC50 at 24 h [1]: 34.3 µM; EC50 [2, 7]: 3.13 µM
Neomycin sulfate	–	–	–	EC50 [2, 8]: 6.72 µM; Activity in the ex vivo system (screen or EC50 determination) ([2]; transgenic L. donovani, ex vivo system): identified as a compound with activity
Cc1nccc2c1[nH]c1cc(O)ccc12 [Harmol Hydrochloride]	–	11.2	–	CC50 [1, 5]: 60.2 µM
CC(NCCN(C)C)C1CC[C@H]2[C@@H]3CCc4cc(O)ccc4[C@H]3CC[C@]12C (stereo partly drawn) [17-(1-((2-(dimethylamino)ethyl)amino)ethyl)estra-1,3,5(10)-trien-3-ol]	–	–	6.2	CC50 at 24 h [1]: 51.6 µM
CN(C)CC1CCC2=C(C1=O)C(c1ccc(Cl)c(Cl)c1)C1=C(CCC(CN(C)C)C1=O)O2 (stereo not drawn) [9-(3,4-Dichlorophenyl)-2,7-bis(dimethylaminomethyl)-3,4,5,6,7,9-hexahydro-2H-xanthene-1,8-dione]	49.8	–	9.4	–
CNCCCC12CCC(c3ccccc31)c1ccccc12 [Maprotiline Hydrochloride]	–	–	–	CC50 at 24 h [1]: 57.9 µM
CC[C@@H](C(=O)O)[C@@H]1O[C@@H]([C@@H](C)[C@H](O)[C@H](C)C(=O)[C@H](CC)[C@H]2O[C@]3(C=C[C@@H](O)[C@]4(CC[C@@](C)([C@H]5CC[C@](O)(CC)[C@H](C)O5)O4)O3)[C@H](C)C[C@@H]2C)[C@@H](C)C[C@@H]1C [Narasin]	–	–	13.3	CC50 at 24 h [1]: 73 µM; EC50 [2, 7]: 13.3 µM
C[C@@H]1[C@H](O)[C@@H](C)/C=C/C=C/C=C/C=C/C=C/C=C/C=C/[C@H](O[C@@H]2O[C@H](C)[C@@H](O)[C@H](N)[C@@H]2O)C[C@@H]2O[C@](O)(C[C@@H](O)C[C@@H](O)[C@H](O)CC[C@@H](O)C[C@@H](O)CC(=O)O[C@H]1C)C[C@H](O)[C@H]2C(=O)O [amphotericin B deoxycholate]	–	–	–	EC50 ([2]; Leishmania donovani, ex vivo model, freshly solubilized compound from commercial source, read-out: EC50): 0.24 ± 0.02 µM
CC(C)=CCNc1ncnc2nc[nH]c12 [N6-Isopentenyladenine]	–	20	–	CC50 [1]: 225 µM
CN(C)CCCN1CCC2(CCC(C(C)(C)C)CC2)CC1 [3-(9-tert-butyl-3-azaspiro[5.5]undec-3-yl)-N,N-dimethyl-1-propanamine]	61.8	–	6.1	–
COc1cc2ccccc2c2cc([N+](=O)[O-])oc12 [Naphtho(2,1-b)furan, 4-methoxy-2-nitro-]	–	–	6.8	CC50 at 24 h [1]: 64.3 µM
Monensin Sodium	–	–	–	EC50 [2, 8]: 2.44 µM; EC50 ([2]; ex vivo splenic explant, 48 h, luminometry, at least two experiments, compound from screened library, read-out: Ex vivo model EC50 Mean): 2.4 µM
O=C1C=C2C=C[C@@H]3C[C@@]2(O1)[C@H]1CCCCN31 [Securinine]	–	6.2	–	CC50 [1, 5]: 47.7 µM
Cc1cc(N2CCCCC2)nc2ccc(Cc3ccc4nc(N5CCCCC5)cc(C)c4c3)cc12 [4-methyl-6-((4-methyl-2-(1-piperidinyl)-6-quinolinyl)methyl)-2-(1-piperidinyl)quinoline]	–	18.4	–	CC50 at 24 h [1]: 109 µM
CN(C)CCCN1c2ccccc2Sc2ccc3ccccc3c21 [3-(12H-benzo[a]phenothiazin-12-yl)-N,N-dimethyl-1-propanamine]	–	11.5	–	CC50 [1, 5]: 66.6 µM
CN[C@H]1CC[C@@H](c2ccc(Cl)c(Cl)c2)c2ccccc21 [Sertraline Hydrochloride]	–	–	–	CC50 at 24 h [1]: 82.5 µM
NCCCCNCCCN [Spermidine Trihydrochloride]	132	–	20	–
Oc1c(Cl)cc(Cl)c(Cl)c1Cc1c(O)c(Cl)cc(Cl)c1Cl [Hexachlorophene]	–	–	–	EC50 ([2]; Leishmania donovani, 48 h, read-out: Ex vivo model EC50 Mean): 13.6 µM
